The target in assay [1] is T1, human adenosine A2A receptor (Homo sapiens, UniProt P29274).
T1 construct: expressed in transfected cells; host or cells: CHO cells, semliki forest virus expression system; membrane preparation
Description: Human adenosine A2A receptor [3H]-SCH-58261 binding assay. The note with it: for hA2 (pKi): human A2A receptor, selectivity table. On the procedure: (§1) The gene encoding human adenosine A2A receptor was recombinantly introduced and expressed in chinese hamster ovary (CHO) cells using the semliki forest virus expression system. Cells were harvested, washed twice by centrifugation, homogenised and again washed by centrifugation. The final washed membrane pellet was suspended in a Tris (50 mM) buffer containing 120 mM NaCl, 5 mM KCl, 2 mM CaCl2 and 10 mM MgCl2 (pH 7.4) (buffer A). The [^3H]-SCH-58261 (Dionisotti et al., 1997, Br. J. Pharmacol. 121, 353; 1 nM) binding assay was carried out in 96-well plates in the presence of 2.5 μg of membrane protein, 0.5 mg of Ysi-poly-1-lysine SPA beads and 0.1 U adenosine deaminase in a final volume of 200 μl of buffer A. Non-specific binding was defined using xanthine amine congener (XAC; 2 EM). Compounds were tested at 10 concentrations from 10 μM-0.3 nM. All assays were conducted in duplicate and repeated at least two times. Assay plates were incubated for 1 hour at room temperature before centrifugation and then bound ligand determined using a Packard Topcount scintillation counter. IC50 values were calculated using a non-linear curve fitting program and Ki values calculated using the Cheng-Prussoff equation.

Assay [2] deals with T2, human adenosine A1 receptor (Homo sapiens, UniProt P30542).
T2 construct: expressed in transfected cells; host or cells: CHO cells, semliki forest virus expression system; membrane preparation
T2 sequence (P30542 1-326): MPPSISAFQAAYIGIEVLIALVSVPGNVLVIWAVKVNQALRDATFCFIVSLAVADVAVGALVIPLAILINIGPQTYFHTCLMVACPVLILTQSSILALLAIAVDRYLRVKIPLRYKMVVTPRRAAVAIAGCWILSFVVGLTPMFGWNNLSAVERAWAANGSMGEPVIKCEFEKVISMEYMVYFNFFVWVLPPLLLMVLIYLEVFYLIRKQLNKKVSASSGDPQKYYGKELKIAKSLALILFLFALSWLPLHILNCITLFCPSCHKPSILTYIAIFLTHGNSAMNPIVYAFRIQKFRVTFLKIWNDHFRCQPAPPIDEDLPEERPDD
Description: Human adenosine A1 receptor [3H]-DPCPX binding assay. To be noted: membranes of CHO cells, read-out: hA1 (pKi) (converted). As to the method:
as §1, with “A1” for “A2A”, “[^3H]-DPCPX (([propyl-3H]8-cyclopentyl-1,3-dipropyxanthine); 0.6” for “[^3H]-SCH-58261 (Dionisotti et al., 1997, Br. J. Pharmacol. 121, 353; 1”, “0. I” for “0.1”, “μM).” for “EM).”

[3] abbreviates: human A2a receptor, membranes of CHO cells, [3H]-SCH-58261, read-out: pKi (affinity to the human A2a receptor) (converted).

Molecules are shown by their SMILES. Like-named read-outs stand apart in the source and are kept apart here.

We go through 26 molecules from patent US6586441B2, “Adenosine receptor ligands and their use in the treatment of disease” (Hoffman-La Roche Inc., priority 2000, dated 2003).

T1 sequence (P29274 whole entry): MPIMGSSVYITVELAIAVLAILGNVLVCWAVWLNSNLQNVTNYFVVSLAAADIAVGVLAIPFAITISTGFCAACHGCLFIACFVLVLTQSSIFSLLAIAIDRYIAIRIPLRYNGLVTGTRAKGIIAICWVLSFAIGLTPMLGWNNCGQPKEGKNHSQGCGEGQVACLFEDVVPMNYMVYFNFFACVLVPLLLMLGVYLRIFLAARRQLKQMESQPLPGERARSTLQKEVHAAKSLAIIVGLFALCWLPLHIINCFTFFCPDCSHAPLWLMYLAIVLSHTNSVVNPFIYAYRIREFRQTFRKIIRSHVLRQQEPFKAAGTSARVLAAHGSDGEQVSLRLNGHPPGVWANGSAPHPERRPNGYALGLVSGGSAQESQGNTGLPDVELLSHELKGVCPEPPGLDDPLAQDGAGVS

With `Cc1ccc(CNc2nc(N)nc(-c3ccco3)c2C#N)cc1` [Example 290, 2-Amino-4-furan-2-yl-6-(4-methyl-benzylamino)-pyrimidine-5-carbonitrile], the “hA2 (pKi)” value in assay [1] is 8.17. Moreover, the Ki in assay [1] (setting [3]) was 6.76 nM; in assay [2] it was 2040 nM.

For `N#Cc1c(NCc2ncc(C(F)(F)F)cc2Cl)nc(N)nc1-c1ccco1` [Example 400, 2-Amino-4-[(3-chloro-5-trifluoromethyl-pyridin-2-yl-methyl)-amino]-6-furan-2-yl-pyrimidine-5-carbonitrile], the “hA2 (pKi)” value in assay [1] came to 8.44. Also, the Ki in assay [1] (setting [3]) is 3.63 nM; in assay [2], 4470 nM.

With `N#Cc1c(NCc2ccc3ccccc3c2)nc(N)nc1-c1ccco1` [Example 298, 2-Amino-4-furan-2-yl-6-[(naphthalen-2-ylmethyl)-amino]-pyrimidine-5-carbonitrile], in assay [1], the “hA2 (pKi)” value is 8.23. Moreover, the Ki was 5.89 nM in assay [1] (setting [3]) and 6920 nM in assay [2].

For `N#Cc1c(NCc2ccc(C(F)(F)F)cc2)nc(N)nc1-c1ccco1` [Example 345, 2-Amino-4-furan-2-yl-6-(4-trifluoromethyl-benzylamino)-pyrimidine-5-carbonitrile], the “hA2 (pKi)” value in assay [1] came to 8.38. In addition, the Ki in assay [1] (setting [3]) is 4.17 nM; in assay [2], 6310 nM.

For `Cc1cnc(COc2nc(N)nc(-c3ccc(Cl)o3)c2C#N)c(C)c1` [Example 526, 2-Amino-4-(5-chloro-furan-2-yl)-6-(3,5-dimethyl-pyridin-2-ylmethoxy)-pyrimidine-5-carbonitrile], the Ki in assay [1] (setting [3]) is 4.27 nM.

`N#Cc1c(NCc2ccc3c(c2)OCO3)nc(N)nc1-c1ccco1` [Example 337, 2-Amino-4-[(benzo [1,3]dioxol-5-ylmethyl)-amino]-6-furan-2-yl-pyrimidine-5-carbonitrile]: the Ki in assay [1] (setting [3]) was 6.61 nM.

As to `Cc1ccc(COc2nc(N)nc(-c3cc(Br)co3)c2C#N)nc1` [Example 532, 2-Amino-4-(4-bromo-furan-2-yl)-6-(5-methyl-pyridin-2-yl-methoxy)-pyrimidine-5-carbonitrile], in assay [1] (setting [3]), the Ki is 5.62 nM.

With `N#Cc1c(NCc2ccccc2Cl)nc(N)nc1-c1ccco1` [Example 360, 2-Amino-4-(2-chloro-benzylamino)-6-furan-2-yl-pyrimidine-5-carbonitrile], the Ki in assay [1] (setting [3]) was 0.589 nM.

`Cc1ccc(CNc2nc(N)nc(-c3ccco3)c2C#N)nc1` [Example 363, 2-Amino-4-furan-2-yl-6-[(5-methyl-pyridin-2-yl-methyl)-amino]-pyrimidine-5-carbonitrile]: the Ki in assay [1] (setting [3]) was 3.24 nM.

Consider `Nc1nc(SCc2ccccc2)c(Cl)c(-c2ccco2)n1` [Example 324, 4-Benzylsulfanyl-5-chloro-6-furan-2-yl-pyrimidin-2-yl-amine], for which the Ki in assay [1] (setting [3]) is 9.12 nM.

As to `N#Cc1c(-c2ccccc2)nc(N)nc1-c1ccco1` [Example 148, 2-Amino-4-furan-2-yl-6-phenyl-pyrimidine-5-carbonitrile], in assay [1], the Ki was 6.46 nM.

With `N#Cc1c(OCCc2ccccc2)nc(N)nc1-c1ccco1` [Example 53, 2-Amino-4-furan-2-yl-6-phenethyloxy-pyrimidine-5-carbonitrile], the Ki in assay [1] (setting [3]) was 6.31 nM.

With `Cc1cccnc1CNc1cc(N)nc(-c2ccco2)c1C#N` [Example 376, 6-Amino-2-furan-2-yl-4-[(3-methyl-pyridin-2-yl-methyl)-amino]-nicotinonitrile], in assay [1] (setting [3]), the Ki was 4.57 nM.

Turning to `N#CCc1ccc(-c2nc(N)nc(SCCc3ccccn3)c2C#N)o1` [Example 524, 2-Amino-4-(5-cyanomethyl-fran-2-yl)-6-(2-pyridin-2:yl-ethylsulfanyl)-pyrimidine-5-carbonitrile], the Ki in assay [1] (setting [3]) was 5.75 nM.

`N#Cc1c(NCc2cccc(C(F)(F)F)c2)nc(N)nc1-c1ccco1` [Example 346, 2-Amino-4-furan-2-yl-6-(3-trifluoromethyl-benzylamino)-pyrimidine-5-carbonitrile]: the Ki in assay [1] (setting [3]) is 2.4 nM.

Take `Nc1nc(SCCc2ccccc2)c(Br)c(-c2ccco2)n1` [Example 269, 5-Bromo-4-furan-2-yl-6-phenethylsulfanyl-pyrimidin-2-yl-amine]: the Ki in assay [1] (setting [3]) is 7.76 nM.

As for `N#Cc1c(NCc2ccccn2)nc(N)nc1-c1ccco1` [Example 283, 2-Amino-4-furan-2-yl-6-[(pyridin-2-ylmethyl)-amino]-pyrimidine-5-carbonitrile], the Ki in assay [1] (setting [3]) is 5.89 nM.

As to `N#Cc1c(SCCc2ccccn2)nc(N)nc1-c1cc(Br)co1` [Example 521, 2-Amino-4-(4-bromo-furan-2-yl)-6-(2-pyridin-2-yl-ethylsulfanyl)-pyrimidine-5-carbonitrile], the Ki in assay [1] (setting [3]) is 1.17 nM.

Consider `N#Cc1c(NCCc2ccc(O)cc2)nc(N)nc1-c1ccco1` [Example 58, 2-Amino-4-furan-2-yl-6-[2-(4-hydroxy-phenyl)-ethylamino]-pyrimidine-5-carbonitrile], for which the Ki in assay [1] (setting [3]) was 6.46 nM.

For `N#Cc1c(OC2CCCCC2)nc(N)nc1-c1ccco1` [Example 55, 2-Amino-4-cyclohexyloxy-6-furan-2-yl-pyrimidine-5-carbonitrile], the Ki in assay [1] (setting [3]) is 7.41 nM.

Turning to `N#Cc1c(OCc2ccccn2)nc(N)nc1-c1ccco1` [Example 76, 2-Amino-4-furan-2-yl-6-(pyridin-2-ylmethoxy)-pyrimidine-5-carbonitrile], the Ki in assay [1] (setting [3]) was 2.09 nM.

Turning to `N#Cc1c(-c2ccco2)nc(N)nc1N1CCc2ccccc2C1` [Example 336, 2-Amino-4-(3,4-dihydro-1H-isoquinolin-2-yl)-6-furan-2-yl-pyrimidine-5-carbonitrile], the Ki in assay [1] (setting [3]) was 8.13 nM.

In the case of `N#Cc1c(NCc2ccccn2)cc(N)nc1-c1ccco1` [Example 371, 6-Amino-2-furan-2-yl-4-[(pyridin-2-yl-methyl)-amino]-nicotinonitrile], the Ki in assay [1] (setting [3]) is 8.13 nM.

`N#Cc1c(NCc2ccccc2Br)nc(N)nc1-c1ccc(Br)o1` [Example 512, 2-Amino-4-(2-bromo-benzylamino)-6-(5-bromo-furan-2-yl)-pyrimidine-5-carbonitrile]: the “pKi (affinity to the human A2a receptor)” value in assay [1] (human A2a receptor, membranes of CHO cells, [3H]-SCH-58261) was determined as 8.88.

For `N#Cc1c(OCCc2ccccn2)nc(N)nc1-c1ccco1` [Example 241, 2-Amino-4-furan-2-yl-6-(2-pyridin-2-yl-ethoxy)-pyrimidine-5-carbonitrile], in assay [1] (setting [3]), the Ki is 2.19 nM.

For the molecule `N#Cc1c(SCCCc2ccccc2)nc(N)nc1-c1ccccc1` [Example 85, 2-Amino-4-phenyl-6-(3-phenyl-propylsulfanyl)-pyrimidine-5-carbonitrile], the Ki in assay [1] (setting [3]) is 7.94 nM.
